Measurements from publication PMC3961306, “Comparison of the Cancer Gene Targeting and Biochemical Selectivities of All Targeted Kinase Inhibitors Approved for Clinical Use” (PLoS ONE, 2014).

Key:
Test in all cases: Kinase profiling in a biochemical assay panel (mobility shift assays and ELISA), %-inhibition at 1 μM; selectivity entropy
[1] = target: panel of more than 300 wild-type and mutant kinases (313 kinase panel) (Homo sapiens, UniProt P41279)
[2] = target: panel of more than 300 wild-type and mutant kinases (313 kinase panel) (Homo sapiens, UniProt P51957)
panel of more than 300 wild-type and mutant kinases (313 kinase panel) (Homo sapiens, UniProt P51957), sequence (P51957 whole entry, change not shown): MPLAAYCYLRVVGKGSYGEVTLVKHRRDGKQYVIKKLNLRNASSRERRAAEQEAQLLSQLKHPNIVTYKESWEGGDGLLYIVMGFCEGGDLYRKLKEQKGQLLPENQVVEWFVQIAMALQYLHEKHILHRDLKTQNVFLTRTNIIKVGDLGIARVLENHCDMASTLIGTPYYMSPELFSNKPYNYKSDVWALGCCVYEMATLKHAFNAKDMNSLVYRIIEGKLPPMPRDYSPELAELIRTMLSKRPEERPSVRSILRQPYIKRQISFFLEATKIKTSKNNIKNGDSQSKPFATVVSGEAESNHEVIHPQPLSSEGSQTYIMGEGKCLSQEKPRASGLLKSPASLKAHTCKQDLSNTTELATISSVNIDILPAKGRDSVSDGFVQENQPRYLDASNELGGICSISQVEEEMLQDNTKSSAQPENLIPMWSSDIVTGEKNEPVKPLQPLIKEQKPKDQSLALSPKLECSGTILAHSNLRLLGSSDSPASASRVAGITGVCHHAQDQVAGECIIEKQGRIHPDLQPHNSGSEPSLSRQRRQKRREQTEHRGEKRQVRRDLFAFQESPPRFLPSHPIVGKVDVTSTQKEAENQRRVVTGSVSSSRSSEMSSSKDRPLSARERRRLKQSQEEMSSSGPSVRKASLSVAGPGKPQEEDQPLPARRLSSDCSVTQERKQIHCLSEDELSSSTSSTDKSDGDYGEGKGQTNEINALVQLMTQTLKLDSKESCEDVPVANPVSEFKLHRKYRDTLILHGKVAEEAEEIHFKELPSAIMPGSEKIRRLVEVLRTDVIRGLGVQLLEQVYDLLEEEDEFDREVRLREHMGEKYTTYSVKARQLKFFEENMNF

[3] = target: panel of more than 300 wild-type and mutant kinases (313 kinase panel) (Homo sapiens, UniProt P53667)
[4] = target: panel of more than 300 wild-type and mutant kinases (313 kinase panel) (Homo sapiens, UniProt Q16539)
panel of more than 300 wild-type and mutant kinases (313 kinase panel) (Homo sapiens, UniProt Q16539), sequence (Q16539 whole entry, change not shown): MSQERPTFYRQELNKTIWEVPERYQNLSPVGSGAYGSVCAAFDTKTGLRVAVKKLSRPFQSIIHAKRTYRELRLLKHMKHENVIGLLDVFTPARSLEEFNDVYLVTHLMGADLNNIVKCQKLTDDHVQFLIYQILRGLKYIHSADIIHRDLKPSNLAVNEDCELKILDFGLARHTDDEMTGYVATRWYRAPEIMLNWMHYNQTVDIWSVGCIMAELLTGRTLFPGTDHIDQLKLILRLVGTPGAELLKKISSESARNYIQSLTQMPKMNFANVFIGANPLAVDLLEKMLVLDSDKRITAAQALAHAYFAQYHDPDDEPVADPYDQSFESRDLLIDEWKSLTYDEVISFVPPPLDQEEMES

[5] = target: panel of more than 300 wild-type and mutant kinases (313 kinase panel) (Homo sapiens, UniProt Q9BUB5)
panel of more than 300 wild-type and mutant kinases (313 kinase panel) (Homo sapiens, UniProt Q9BUB5), sequence (Q9BUB5 whole entry, change not shown): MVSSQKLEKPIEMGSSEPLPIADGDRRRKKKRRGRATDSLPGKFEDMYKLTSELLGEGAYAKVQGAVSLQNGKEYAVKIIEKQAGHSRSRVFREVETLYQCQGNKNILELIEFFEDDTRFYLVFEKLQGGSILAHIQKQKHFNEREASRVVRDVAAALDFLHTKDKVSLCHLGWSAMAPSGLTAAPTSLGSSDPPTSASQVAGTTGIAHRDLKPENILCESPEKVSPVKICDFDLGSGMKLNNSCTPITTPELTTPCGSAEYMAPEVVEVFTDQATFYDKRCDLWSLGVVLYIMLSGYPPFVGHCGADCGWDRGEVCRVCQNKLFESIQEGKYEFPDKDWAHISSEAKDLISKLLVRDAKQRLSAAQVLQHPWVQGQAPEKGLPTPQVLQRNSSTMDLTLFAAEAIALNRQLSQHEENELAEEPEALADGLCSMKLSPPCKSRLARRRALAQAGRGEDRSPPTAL

[6] = target: panel of more than 300 wild-type and mutant kinases (313 kinase panel) (Homo sapiens, UniProt Q9HCP0)
[7] = target: T1, panel of more than 300 wild-type and mutant kinases (313 kinase panel) (Homo sapiens, UniProt Q9UF33)
T1 sequence (Q9UF33 23-1036): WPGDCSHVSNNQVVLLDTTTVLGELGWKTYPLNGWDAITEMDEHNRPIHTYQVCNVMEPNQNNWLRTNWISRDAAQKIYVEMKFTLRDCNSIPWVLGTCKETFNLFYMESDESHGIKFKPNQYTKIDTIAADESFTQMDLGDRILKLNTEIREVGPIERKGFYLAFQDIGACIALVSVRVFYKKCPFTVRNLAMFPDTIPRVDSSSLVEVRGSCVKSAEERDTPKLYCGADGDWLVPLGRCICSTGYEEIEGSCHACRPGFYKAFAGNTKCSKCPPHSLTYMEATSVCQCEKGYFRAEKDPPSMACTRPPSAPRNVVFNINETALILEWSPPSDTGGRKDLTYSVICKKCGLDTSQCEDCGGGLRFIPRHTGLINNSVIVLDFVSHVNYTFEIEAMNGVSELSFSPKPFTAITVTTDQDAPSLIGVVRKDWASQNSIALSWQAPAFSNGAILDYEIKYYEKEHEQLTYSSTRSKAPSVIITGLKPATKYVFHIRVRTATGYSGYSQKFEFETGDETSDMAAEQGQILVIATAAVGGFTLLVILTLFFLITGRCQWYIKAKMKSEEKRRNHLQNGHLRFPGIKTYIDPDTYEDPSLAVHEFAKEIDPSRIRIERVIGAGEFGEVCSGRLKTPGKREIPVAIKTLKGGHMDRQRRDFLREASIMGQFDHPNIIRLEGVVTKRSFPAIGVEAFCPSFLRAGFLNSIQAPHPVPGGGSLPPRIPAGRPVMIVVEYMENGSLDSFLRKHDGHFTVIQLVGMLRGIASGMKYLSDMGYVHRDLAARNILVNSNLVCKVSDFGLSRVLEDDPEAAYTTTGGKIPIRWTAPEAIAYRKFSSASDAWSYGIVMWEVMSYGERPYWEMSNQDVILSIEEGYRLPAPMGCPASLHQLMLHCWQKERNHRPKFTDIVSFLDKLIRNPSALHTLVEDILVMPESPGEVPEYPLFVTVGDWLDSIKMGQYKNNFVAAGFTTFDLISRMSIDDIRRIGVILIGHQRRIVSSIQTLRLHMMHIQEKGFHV

[8] = target: panel of more than 300 wild-type and mutant kinases (313 kinase panel) (Homo sapiens, UniProt P07332)
[9] = target: panel of more than 300 wild-type and mutant kinases (313 kinase panel) (Homo sapiens, UniProt P17948)
[10] = target: panel of more than 300 wild-type and mutant kinases (313 kinase panel) (Homo sapiens, UniProt P49674)
[11] = target: T2, panel of more than 300 wild-type and mutant kinases (313 kinase panel) (Homo sapiens, UniProt Q92630)
T2 sequence (Q92630 1-601): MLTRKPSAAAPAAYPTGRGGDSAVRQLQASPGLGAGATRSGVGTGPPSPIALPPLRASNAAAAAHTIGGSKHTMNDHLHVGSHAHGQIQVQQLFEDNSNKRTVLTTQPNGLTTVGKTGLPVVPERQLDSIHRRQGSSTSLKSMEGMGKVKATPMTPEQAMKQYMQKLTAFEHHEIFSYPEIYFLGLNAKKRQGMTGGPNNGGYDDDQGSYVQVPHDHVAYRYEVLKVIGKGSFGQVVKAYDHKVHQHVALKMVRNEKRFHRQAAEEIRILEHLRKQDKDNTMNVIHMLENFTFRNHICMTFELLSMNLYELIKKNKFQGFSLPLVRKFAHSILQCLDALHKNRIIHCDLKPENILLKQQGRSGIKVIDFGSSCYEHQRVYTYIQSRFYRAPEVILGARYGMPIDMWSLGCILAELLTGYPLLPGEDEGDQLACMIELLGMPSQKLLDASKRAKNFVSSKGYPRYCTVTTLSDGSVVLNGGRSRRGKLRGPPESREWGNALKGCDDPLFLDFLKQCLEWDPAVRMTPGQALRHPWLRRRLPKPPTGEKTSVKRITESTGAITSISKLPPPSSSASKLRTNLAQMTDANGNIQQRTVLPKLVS

[12] = target: panel of more than 300 wild-type and mutant kinases (313 kinase panel) (Homo sapiens, UniProt Q9Y243)
panel of more than 300 wild-type and mutant kinases (313 kinase panel) (Homo sapiens, UniProt Q9Y243), sequence (Q9Y243 whole entry, change not shown): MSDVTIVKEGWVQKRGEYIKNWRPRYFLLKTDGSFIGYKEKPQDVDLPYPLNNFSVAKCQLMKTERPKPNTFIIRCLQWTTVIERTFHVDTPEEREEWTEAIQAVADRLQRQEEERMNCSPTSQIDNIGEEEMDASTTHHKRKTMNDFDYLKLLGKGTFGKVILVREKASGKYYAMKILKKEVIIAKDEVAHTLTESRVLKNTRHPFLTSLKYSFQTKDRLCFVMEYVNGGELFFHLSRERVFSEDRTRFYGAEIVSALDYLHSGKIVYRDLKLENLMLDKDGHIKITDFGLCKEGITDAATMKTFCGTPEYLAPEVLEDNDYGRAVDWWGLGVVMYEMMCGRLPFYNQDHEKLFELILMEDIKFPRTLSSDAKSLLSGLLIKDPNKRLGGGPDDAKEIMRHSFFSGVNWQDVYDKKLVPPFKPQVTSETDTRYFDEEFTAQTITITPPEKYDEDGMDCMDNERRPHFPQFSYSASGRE

panel of more than 300 wild-type and mutant kinases (313 kinase panel) (Homo sapiens, UniProt P41279), sequence (P41279 whole entry, change not shown): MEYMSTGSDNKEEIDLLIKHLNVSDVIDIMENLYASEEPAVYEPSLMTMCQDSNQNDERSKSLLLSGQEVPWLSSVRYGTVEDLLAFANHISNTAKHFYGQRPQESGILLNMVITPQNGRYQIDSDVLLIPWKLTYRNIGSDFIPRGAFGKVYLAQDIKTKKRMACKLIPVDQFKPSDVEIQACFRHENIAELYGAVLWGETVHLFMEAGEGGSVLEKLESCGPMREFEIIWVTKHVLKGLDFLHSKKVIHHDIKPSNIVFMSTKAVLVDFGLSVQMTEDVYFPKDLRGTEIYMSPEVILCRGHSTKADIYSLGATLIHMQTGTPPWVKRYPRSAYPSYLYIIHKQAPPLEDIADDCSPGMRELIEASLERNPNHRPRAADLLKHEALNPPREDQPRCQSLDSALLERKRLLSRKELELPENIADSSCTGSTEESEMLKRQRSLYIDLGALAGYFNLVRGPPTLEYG

SMILES	%-inhibition of COT ([1]; kinase COT, compound at 1 μM) [%]	%-inhibition of NEK4 ([2]; kinase NEK4, 1 μM) [%]	%-inhibition of LIMK1 ([3]; kinase LIMK1, compound at 1 μM) [%]	%-inhibition of p38α ([4]; kinase p38α, 1 μM) [%]	%-inhibition of MNK1 ([5]; kinase MNK1, 1 μM) [%]	%-inhibition, CK1γ1 ([6]; kinase CK1γ1, 1 μM compound) [%]	%-inhibition of EPHA6 ([7]; kinase EPHA6, compound at 1 μM) [%]	%-inhibition of FES ([8]; kinase FES, compound at 1 μM) [%]	%-inhibition of FLT1 ([9]; kinase FLT1, compound at 1 μM) [%]	%-inhibition, CK1ε ([10]; kinase CK1ε, 1 μM compound) [%]	%-inhibition of DYRK2 ([11]; kinase DYRK2, compound at 1 μM) [%]	%-inhibition, AKT3 ([12]; kinase AKT3, 1 μM compound) [%]	other results
CN(C)C/C=C/C(=O)Nc1cc2c(Nc3ccc(F)c(Cl)c3)ncnc2cc1O[C@H]1CCOC1 [afatinib]	-7.4												
COc1cc(Nc2c(C#N)cnc3cc(OCCCN4CCN(C)CC4)c(OC)cc23)c(Cl)cc1Cl [bosutinib]	7	84	-7	9	-4.37	14	102						
COc1cc2nccc(Oc3ccc(NC(=O)C4(C(=O)Nc5ccc(F)cc5)CC4)cc3)c2cc1OC [cabozantinib]	18	16	51	37	11	4.74	100	39	99	3.28	17	-3	
C[C@@H](Oc1cc(-c2cnn(C3CCNCC3)c2)cnc1N)c1c(Cl)ccc(F)c1Cl [crizotinib]	11	4.57	94	-2.27	0	-3.52	100		53	4	10	-1.83	
CC(C)(C)c1nc(-c2cccc(NS(=O)(=O)c3c(F)cccc3F)c2F)c(-c2ccnc(N)n2)s1 [dabrafenib]	9	4	100		20		88	2.29	62	10	6		
Cc1nc(Nc2ncc(C(=O)Nc3c(C)cccc3Cl)s2)cc(N2CCN(CCO)CC2)n1 [dasatinib]		1.17		91							12		
C#Cc1cccc(Nc2ncnc3cc(OCCOC)c(OCCOC)cc23)c1 [erlotinib]													%-inhibition of FES ([8]; 1 µM): 8.5%; %-inhibition of FLT1 ([9]; 1 µM): 70%; %-inhibition of COT ([1]; 1 µM): -0.486%; %-inhibition, CK1ε ([10]; 1 µM): -2.38%; %-inhibition of NEK4 ([2]; 1 µM): 0.778%; %-inhibition of LIMK1 ([3]; 1 µM): 0.0961%; %-inhibition of p38α ([4]; 1 µM): -0.474%; %-inhibition of DYRK2 ([11]; 1 µM): 45%; %-inhibition of MNK1 ([5]; 1 µM): 74%; %-inhibition, CK1γ1 ([6]; 1 µM): 2.22%; %-inhibition of EPHA6 ([7]; 1 µM): 69%; %-inhibition, AKT3 ([12]; 1 µM): 8%
CO[C@H]1C[C@@H]2CC[C@@H](C)[C@@](O)(O2)C(=O)C(=O)N2CCCC[C@H]2C(=O)O[C@H]([C@H](C)C[C@@H]2CC[C@@H](OCCO)[C@H](OC)C2)CC(=O)[C@H](C)/C=C(\C)[C@@H](O)[C@@H](OC)C(=O)[C@H](C)C[C@H](C)/C=C/C=C/C=C/1C [everolimus]	-3	0.832	3.28	-4.27	-0.485	-2.44	2.18	-2.38	-2.63	-6.43	-10	-3.39	
CS(=O)(=O)CCNCc1ccc(-c2ccc3ncnc(Nc4ccc(OCc5cccc(F)c5)c(Cl)c4)c3c2)o1 [lapatinib]	-0.221	0.649	-2.33	-3	11	-8.54	20	5				5	%-inhibition, CK1ε ([10]; 1 µM): 1.64%; %-inhibition of DYRK2 ([11]; 1 µM): 10%
Cc1ccc(Nc2nccc(N(C)c3ccc4c(C)n(C)nc4c3)n2)cc1S(N)(=O)=O [pazopanib]	-0.233	12		10	-2	-3	24		100	0	-1	-0.112	
Cc1ccc(C(=O)Nc2ccc(CN3CCN(C)CC3)c(C(F)(F)F)c2)cc1C#Cc1cnc2cccnn12 [ponatinib]	-2.42	98	68	101	30	-4	103		101				
CCN(CC)CCNC(=O)c1c(C)[nH]c(/C=C2\C(=O)Nc3ccc(F)cc32)c1C [sunitinib]									98	45			
COc1cc2c(Nc3ccc(Br)cc3F)ncnc2cc1OCC1CCN(C)CC1 [vandetanib]	-2.53	-6.51	12	18	91	-4.74		-3.7			-9	-0.887	
